Source: patent US20010007856A1, “METHOD FOR PREVENTING AND TREATING AT A SUPERACUTE PHASE, AGAINST NEUROLOGICAL DEFICITS OR NEURONAL DEATH IN BRAIN ISCHEMIA AND PATHOLOGICAL CONDITIONS” (priority 1997, published 2001)
Read-outs that look alike come from different tables or passages of the source.

Assays:
[1] = prior art feature; cited from earlier work
[2] = test system: Rats, SD strain; conditions: cited from earlier work
[3] = test system: patients with brain ischemia (subarachnoid hemorrhage, cerebral infarction, brain injury, brain hemorrhage); conditions: human, in vivo
Experimental: In order further to examine the neuroprotective effect in cerebral ischemia indicated from the experiment, a clinical preliminary study was conducted.
After the neck clipping surgery, 500 mg/day of “DOPS” (registered trademark, Sumitomo Pharmaceuticals Co., Ltd., Japan) was administered for 5 days.
Neck clipping was conducted on the day of onset, when the patient's condition was Hunt & Kosnic Grade IV. From the third day after subarachnoid hemorrhage, 500 mg/day of “DOPS” (registered trademark) was administered for 5 days.
Neck clipping was conducted on the day of onset, when the patient's condition was Hunt & Kosnic Grade IV. Since consciousness disturbance (semicoma), hyperventilation, and reduced light reflex were observed on the sixth day after surgery, a diagnosis of impending cerebral herniation was established and 500 mg/day of “DOPS” (registered trademark) was administered for 5 days. […] Soon after discontinuation of administration, mydriasis was rapidly observed.
Left hemiplegia first appeared and consciousness disturbance (JCS:100) and mydriasis of the right eye were observed 2 days later. Immediately after that, external and internal decompressions was performed and 300 mg/day of “DOPS” (registered trademark) was simultaneously administered for 5 days.
From the time immediately after injury, the patient developed mydriasis in both eyes and deep coma due to brainstem hernia. […]

[4] = test system: rhesus monkeys; conditions: oral, 3 months; 300, 1,000, 3,000 mg/kg/day; cited from earlier work
[5] = test system: SD rats; conditions: oral, 3 months, cited from earlier work
[6] = test system: microorganisms; conditions: cited from earlier work
[7] = test system: middle brain artery (MC) occulusion model Wistar rats; experiment: transient cerebral ischemia, middle brain artery (MC) occlusion model, infarction volume; assay type: in vivo; conditions: for reduction of size of cerebral infarction: MC occlusion 1 hour
[8] = test system: mice; conditions: mouse, in vivo; cited from earlier work
[9] = test system: beagle dogs; conditions: cited from earlier work
[10] = test system: cultured cells; conditions: cited from earlier work
[11] = physchem; assay type: physicochemical
Description: (§1) L-threo-DOPS, whose molecular formula is C9H11NO5, is white or light brown crystals or crystalline powder with no taste or odor. […] It is difficult to measure a clear melting point or decomposition point for L-threo-DOPS. […] DL-threo-DOPS, which contains 50% L-threo-DOPS, can also be used in this invention. Hereafter, L-threo-DOPS and DL-threo-DOPS are generically denoted as “threo-DOPS”.

[12] = test system: SD rats (male and female); conditions: oral; 60, 200, 600 mg/kg/day; cited from earlier work
[13] = test system: Mice, ICR strain; conditions: cited from earlier work; for LD50: mouse, in vivo
[14] = test system: SD rats; conditions: oral; 60, 200, 600 mg/kg/day; cited from earlier work
[15] = test system: beagle dogs; conditions: oral, 12 months; 125, 500, 2,000 mg/kg/day; cited from earlier work
[16] = test system: SD rats; conditions: oral, 12 months, cited from earlier work
[17] = test system: SD rats; conditions: oral, 60, 200, 600 mg/kg/day, cited from earlier work
[18] = test system: rhesus monkeys; conditions: cited from earlier work
[19] = solubility (descriptive); assay type: physicochemical
Description: as §1

[20] = test system: guinea pigs (Hartley strain, male); conditions: guinea pig, in vivo; cited from earlier work
[21] = test system: rabbits; conditions: oral; 30, 100, 300 mg/kg/day; cited from earlier work
[22] = test system: beagle dogs; conditions: oral, 3 months; 200, 600, 2,000 mg/kg/day; cited from earlier work

## N[C@H](C(=O)O)[C@H](O)c1ccc(O)c(O)c1 [threo-DOPS]
[1]
  passage through the blood-brain barrier: passes through the blood-brain barrier into the brain

## N[C@H](C(=O)O)[C@H](O)c1ccc(O)c(O)c1 [L-threo-DOPS, (−)-(2S, 3R)-2-amino-3-hydroxy-3-(3,4-dihydroxyphenyl) propionic acid]
[2]; rat, in vivo, po
  LD50: >10000 mg/kg
[2]; rats
  general symptoms in acute toxicity: reduced voluntary motions, deep breathing and bradypnea
[3]
  adverse effects: No adverse effects were observed
[4]
  abnormality in various observations and testing evaluations: no abnormality was observed
[5]; 60, 300, 1,500 mg/kg/day
  dose with suppressed voluntary motions, necrosis of kidney uriniferous tubuli, necrosis of cardiac muscles, etc.: ≥ 60 mg/kg/day
[5]
  dose with drooling: 1,500 mg/kg/day
  dose with suppression of weight increases and such: ≥ 300 mg/kg/day
[6]
  mutagenicity, back mutation: no mutagenicity was observed
[7]; L-threo-DOPS 400 mg/kg (+ BSZ 2 mg/kg) i.p. 30 minutes before occlusion, FIG. 1
  reduction of size of cerebral infarction: about 40%
[7]; L-threo-DOPS 400 mg/kg (+ BSZ 2 mg/kg) i.p. one hour after occlusion, FIG. 2
  reduction of size of cerebral infarction: about 40%
[7]; MC occlusion 24 hours, L-threo-DOPS 400 mg/kg (+ BSZ 2 mg/kg) i.p. one hour after occlusion, FIG. 3
  regression effect on cerebral infarction: no regression effect was observed
[8]
  mutagenicity, micronucleus: no mutagenicity was observed
[9]; dog, in vivo, po
  LD50: >5000 mg/kg
[9]; dogs
  general symptoms in acute toxicity: no abnormal symptom was observed
[10]
  mutagenicity, chromosome abnormality: no mutagenicity was observed
[11]
  pKa: 7.88
[12]
  influence on mating rate, conception rate, nidation number, embryo/neonate death, teratogenic actions or fetal development: no influence was observed
[13]; mice
  general symptoms in acute toxicity: reduced voluntary motions, deep breathing and bradypnea
[13]; iv
  LD50: >100 mg/kg
[13]; po
  LD50: >10000 mg/kg
[13]
  LD50: >10000 mg/kg
[14]
  dose with shortening of the pregnancy period: 600 mg/kg
  dose with suppression of neonatal development after birth: ≥ 60 mg/kg
  other influence: No other influence was observed
[15]
  abnormality in various observations and testing evaluations: no abnormality was observed
[16]; 10, 30, 100, 300 mg/kg/day
  dose with suppression of weight increases, increase in thymus weight, necrosis of kidney uriniferous tubuli, degeneration of kidney glomeruli, etc.: ≥ 30 mg/kg/day
[16]
  dose with drooling, myocarditis and calcification of cardiac muscles, etc.: ≥ 100 mg/kg/day
[17]
  other influence: No other influence was observed
[17]; restorable after birth
  dose with lower body weights of fetuses and increased occurrence of undulating ribs: ≥ 200 mg/kg
[18]; rhesus monkey, in vivo, po
  LD50: >5000 mg/kg
[18]; rhesus monkeys
  general symptoms in acute toxicity: no abnormal symptom was observed
[19]; ether, ethanol, glacial acetic acid
  solubility in ether, ethanol and glacial acetic acid: dissolves very little
[19]; water
  solubility in water: dissolves only slightly
[20]
  Endodermoreaction: negative
  PCA reaction: negative
  intra-gel sedimentation reaction: negative
  systemic anaphylaxis reaction: negative
[21]
  influence on the rabbits: no influence on the rabbits was observed
[22]
  abnormality in various observations and testing evaluations: no abnormality was observed
